Data set [1] has as its system patients who failed to ovulate or ovulated with endometrial thickness <5 mm in response to CC.
Procedure: HCG 10,000 IU was given to trigger ovulation. CC was given in a dose of 50-100 mg on days 3-7 or 5-9.
A further data set relates to anovulatory women. The note with it: cited from earlier work.
Data set [2] concerns endometrium of normal women. The note with it: morphometric analysis; cited from earlier work.
For data set [3], the target named is T1, aromatase (Homo sapiens, UniProt P11511).
T1 sequence (P11511 1-503): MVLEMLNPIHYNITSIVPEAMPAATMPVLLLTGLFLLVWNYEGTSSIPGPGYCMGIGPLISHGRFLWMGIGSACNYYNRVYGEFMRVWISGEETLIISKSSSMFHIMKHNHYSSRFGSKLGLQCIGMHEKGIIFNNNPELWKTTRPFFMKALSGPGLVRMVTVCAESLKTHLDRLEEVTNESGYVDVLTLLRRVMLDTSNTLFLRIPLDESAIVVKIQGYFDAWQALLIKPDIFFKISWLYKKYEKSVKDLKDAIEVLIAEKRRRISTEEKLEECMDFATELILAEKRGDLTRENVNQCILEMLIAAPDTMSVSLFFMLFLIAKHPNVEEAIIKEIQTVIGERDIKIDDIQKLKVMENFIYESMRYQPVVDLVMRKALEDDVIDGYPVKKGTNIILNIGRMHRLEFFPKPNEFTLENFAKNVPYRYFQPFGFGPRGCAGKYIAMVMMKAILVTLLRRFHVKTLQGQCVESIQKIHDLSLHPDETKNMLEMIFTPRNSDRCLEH
The note with it: cited from earlier work.

For data set [4], the system named is postmenopausal breast cancer patients. The note with it: lethargy, rashes, nausea and fever; cited from earlier work.
The subject of data set [5] is patients who failed to ovulate or ovulated with endometrial thickness <5 mm in response to CC. Put plainly: Example 1: letrozole for ovulation induction after CC failure. The class given is in vivo, human.
Source text: HCG 10,000 IU was given to all except one patient to trigger ovulation. Ten patients completed 12 cycles (one patient completed three cycles).
Data set [6] addresses T2, aromatase (Rattus norvegicus, UniProt P22443).
T2 sequence (P22443 1-508): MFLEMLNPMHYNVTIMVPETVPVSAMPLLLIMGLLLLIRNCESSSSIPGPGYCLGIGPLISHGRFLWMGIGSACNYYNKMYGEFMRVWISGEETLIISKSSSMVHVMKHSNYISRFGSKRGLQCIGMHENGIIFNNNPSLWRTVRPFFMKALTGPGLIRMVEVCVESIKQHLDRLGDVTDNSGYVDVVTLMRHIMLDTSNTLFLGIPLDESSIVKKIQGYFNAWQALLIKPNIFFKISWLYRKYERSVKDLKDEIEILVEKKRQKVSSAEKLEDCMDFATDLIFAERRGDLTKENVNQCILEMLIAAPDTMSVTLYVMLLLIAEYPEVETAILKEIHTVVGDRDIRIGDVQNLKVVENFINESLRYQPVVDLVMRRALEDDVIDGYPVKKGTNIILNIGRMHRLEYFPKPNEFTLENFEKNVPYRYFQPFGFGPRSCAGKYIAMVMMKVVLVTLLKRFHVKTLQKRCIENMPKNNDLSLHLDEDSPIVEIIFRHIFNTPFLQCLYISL
The note with it: given orally; cited from earlier work.

The next data set has as its system mature female rats. Conditions: cited from earlier work.
The conditions of data set [7]: oral, healthy postmenopausal women; cited from earlier work.
The conditions of data set [8]: in vivo; cited from earlier work.
In data set [9] the test system is women with PCOS; ovulatory women. Conditions: cited from earlier work.
Data set [10] relates to ovulatory women with unexplained infertility and anovulatory women with PCOS. The note with it: cited from earlier work.
For the next data set, the system named is mice. Conditions: mouse, in vivo; cited from earlier work.
A further data set relates to rats. Conditions: rat, in vivo; cited from earlier work.
For data set [11], the system named is patients with PCOS with inadequate response to CC. The note with it: cited from earlier work.

Structures can show the parent of a compound that is named as a salt. Where two headings read alike, the source gives them in different places.

Data on four molecules can be found in patent US7820706B2, “Multiple dose aromatase inhibitor for treating infertility” (Ares Trading S.A., priority 2001, dated 2010).

In the case of `CCN(CC)CCOc1ccc(C(=C(Cl)c2ccccc2)c2ccccc2)cc1` [CC, clomiphene citrate], in data set [1] (mean), the “Day of hCG administration” value came out at 12.6, the “Endometrial Thickness” value came to 0.5 Cm, the “Estradiol on day of hCG administration” value amounted to 2145 pmol/L and the “Estradiol per mature follicle” value was found to be 1278 pmol/L. Also, in data set [1] (mean), the “Follicles >1.5 Cm on day of hCG administration” value was 1.9, the “LH on day of hCG administration” value was 16 IU/L and the “Number of Days from last letrozole tablet to HCG day” value (from here on “Number of Days”) stood at 4.4. Further, in data set [1] (median), the “Day of hCG administration” value is given as 12, the “Endometrial Thickness” value came to 0.4 Cm, the “Estradiol on day of hCG administration” value was found to be 1668 pmol/L and the “Estradiol per mature follicle” value was found to be 1486 pmol/L. Also, in data set [1] (median), the “Follicles >1.5 Cm on day of hCG administration” value turned out to be 2, the “LH on day of hCG administration” value is listed as 8 IU/L and the “Number of Days” value amounted to 4. Also, in [1] (range), the “Day of hCG administration” value is given as 11-16, the “Endometrial Thickness” value is listed as 0.4-0.8 Cm, the “Estradiol on day of hCG administration” value lay within 362 to 5210 pmol/L and the “Estradiol per mature follicle” value lay within 177 to 2404 pmol/L. In data set [1] (range), the “Follicles >1.5 Cm on day of hCG administration” value is 1-5, the “LH on day of hCG administration” value is 3-66 IU/L and the “Number of Days” value was 2-7. In addition, the “anovulatory women resistant to CC who fail to ovulate” value in the data set on anovulatory women (doses up to 150 mg daily) was 20% to 25%. Further, the “women who do not ovulate with CC” value in the data set with anovulatory women (in vivo) is recorded as 20 to 25%. For the same molecule, in data set [2], the “effect on the endometrium (glandular density, vacuolated cells)” value is recorded as “deleterious effect on the endometrium”.
For the molecule `CC(C)(C#N)c1cc(Cn2cncn2)cc(C(C)(C)C#N)c1` [anastrozole], the “in vivo inhibition of aromatase” value on aromatase [3] is recorded as 97%.
For `CCC1(c2ccc(N)cc2)CCC(=O)NC1=O` (centres unmarked) [aminoglutethimide], the “patients stopping treatment because of side effects” value in [4] was 8-15%.
In the case of `N#Cc1ccc(C(c2ccc(C#N)cc2)n2cncn2)cc1` [letrozole], the “pregnancy, patients” value in [5] (4 out of 10 patients) is reported as 40%; in data set [1] (5 out of 15 patients) it was 33%; in data set [9] (PCOS group, 3 patients) it was 25%; in [9] (ovulatory group, one patient), 10%. Moreover, the “ovulation, cycles” value in data set [5] (9 of 12 cycles, 2.5 to 5 mg/day) is 75%; in [1] (13 of 17 letrozole cycles), 77%; in [9] (PCOS group, 9 of 12 cycles) it was 75%. The “Endometrial Thickness” value in [5] (mean) is on record as 0.8 Cm; in data set [5] (median), 0.8 Cm; in [5] (range), 0.6-0.9 Cm; in [1] (mean), 0.8 Cm; in data set [1] (median), 0.8 Cm; in [1] (range), 0.6-1.1 Cm. In addition, the “Estradiol on day of HCG admin.” value came to 1036 pmol in [5] (mean) and 988 pmol in [5] (median). Besides, the “Follicles >1.5 Cm On day of HCG admin.” value in data set [5] (range) is given as 1-3. Further, the “Estradiol per mature follicle” value was 392 pmol/L in [1] (mean), 289 pmol/L in [1] (median) and 107 to 837 pmol/L in data set [1] (range). The “Number of Days” value in data set [1] (mean) is reported as 6.7; in data set [1] (median), 7; in data set [1] (range), 2-9. The ED50 in vivo at aromatase [6] was 1 to 3 µg/kg. The “FSH and LH” value with mature female rats is “increased FSH and LH”. In addition, the “increase in ovarian weight” value in the data set on mature female rats is reported as roughly 30%. Also, the half-life entry in data set [7] is listed as “approximately 45 hours”. For the same molecule, the doses well tolerated entry in [8] is on record as “up to 30 mg”. Also, the mean endometrial thickness in data set [9] (ovulatory group) is 0.8 cm. Moreover, the “mean number of mature follicles” value is 2.3 in data set [9] (ovulatory group) and 2.6 in [11] (7 ovulatory cycles, mean). Also, the “FSH dose required for adequate ovarian super ovulation” value in data set [10] (letrozole in conjunction with FSH) is “significantly lower FSH dose”. Besides, the “ovarian response to FSH stimulation” value in [10] (low responders during ovarian stimulation) is on record as “improvement in ovarian response to FSH stimulation”. The lethal dose entry in the data set with mice and in the data set with rats was “approximately 2000 mg/kg” throughout. Besides, the “ovulation, letrozole treated cycles” value in data set [11] (7 of the 10 cycles, PCOS) was 70%. In addition, the “number of mature follicles, range” value in data set [11] (7 ovulatory cycles, range) was 1 to 4 follicles. In addition, the “mean estradiol per follicle” value in [11] (mean) was 378 pmol/L. The chemical pregnancy result in data set [11] (of 10 PCOS patients) is “one”. The clinical pregnancy in data set [11] (of 10 PCOS patients) was 2 patients.
